SMILES strings stand for the structures. pIC50: −log10 of the molar value. Where “and” joins values, the source holds several entries; their conditions need not be identical. Identical values can stand only once. Where only a bound is given, the exact number is not on record here.

The test addresses T1, human TG2 (Homo sapiens, UniProt P21980).
T1 sequence (P21980 1-687): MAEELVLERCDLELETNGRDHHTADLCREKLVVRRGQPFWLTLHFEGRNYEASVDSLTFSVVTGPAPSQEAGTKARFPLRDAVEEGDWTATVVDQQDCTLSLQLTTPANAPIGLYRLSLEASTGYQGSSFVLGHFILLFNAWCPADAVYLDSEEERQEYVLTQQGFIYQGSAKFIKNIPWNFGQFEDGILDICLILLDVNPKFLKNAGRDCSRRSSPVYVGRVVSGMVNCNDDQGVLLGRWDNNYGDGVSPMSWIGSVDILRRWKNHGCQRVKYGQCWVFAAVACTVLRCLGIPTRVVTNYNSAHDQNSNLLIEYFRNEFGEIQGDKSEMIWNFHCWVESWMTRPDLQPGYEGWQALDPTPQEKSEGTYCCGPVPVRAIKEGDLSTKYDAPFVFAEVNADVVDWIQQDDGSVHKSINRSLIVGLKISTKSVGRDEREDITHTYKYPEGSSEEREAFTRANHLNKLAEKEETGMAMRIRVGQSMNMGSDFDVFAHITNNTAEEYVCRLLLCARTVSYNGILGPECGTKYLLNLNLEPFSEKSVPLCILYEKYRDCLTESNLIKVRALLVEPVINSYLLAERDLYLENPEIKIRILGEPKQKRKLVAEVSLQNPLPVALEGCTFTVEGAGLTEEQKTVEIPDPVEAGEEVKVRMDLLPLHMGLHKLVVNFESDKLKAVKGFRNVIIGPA
Put plainly: fluorescent screening assay for human TG2. It is filed as biochemical. To be noted: 20 nM TG2, 8 μM N,N-dimethylated Casein, 16 μM KxD, pH 7.4, 37° C. An outline of the steps: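 20 nM TG2 with 8 μM N,N-dimethylated casein and 16 μM K×D in 25 mM Hepes pH 7.4, 250 mM NaCl, 2 mM MgCl2, 0.5 mM CaCl2, 0.2 mM DTT, 0.05% Pluronic F-127 at 37° C. Fluorescence (ex 350, em 535 nm) was read every 3 min for up to 2 h. Initial linear velocity served as activity.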
`C=CC(=O)Nc1ccc(S(=O)(=O)N2CCN(C(=O)OCc3ccccc3)CC2)cc1F` [4-(4-Acryloylamino-3-fluoro-benzenesulfonyl)-piperazine-1-carboxylic acid benzyl ester] had a pIC50 of 4.60 to 6.00.

For `C=CC(=O)Nc1ccc(S(=O)(=O)N2CCN(c3cccc4nc(C)ccc34)CC2)cc1` [N-{4-[4-(2-Methyl-quinolin-5-yl)-piperazine-1-sulfonyl]-phenyl}-acrylamide], the pIC50 is > 7.00 and 6.00 to 7.00.

Take `C=CC(=O)Nc1ccc(S(=O)(=O)N2CCC(N(C)C(=O)OC(C)(C)C)CC2)cc1` [[1-(4-Acryloylamino-benzenesulfonyl)-piperidin-4-yl]-methyl-carbamic acid tert-butyl ester]: the pIC50 was 6.00 to 7.00 and > 7.00.

For the molecule `C=CC(=O)Nc1cccc(S(=O)(=O)N2CCN(Cc3ccccc3)CC2)c1` [N-[3-(4-Benzyl-piperazine-1-sulfonyl)-phenyl]-acrylamide], the pIC50 was 4.60 to 6.00.

As for `C=CC(=O)Nc1ccc(S(=O)(=O)N2CCN(C(=O)OCC)CC2)cc1` [4-(4-Acryloylamino-benzenesulfonyl)-piperazine-1-carboxylic acid ethyl ester], the pIC50 is 6.00 to 7.00 and > 7.00.

`C=CC(=O)Nc1ccc(S(=O)(=O)NCc2ccc(-c3ccccc3)nc2)cc1` [N-{4-[(6-Phenyl-pyridin-3-ylmethyl)-sulfamoyl]-phenyl}-acrylamide]: the pIC50 was 4.60 to 6.00.

In the case of `C=CC(=O)Nc1ccc(S(=O)(=O)N2CCNC(c3ccc(C)o3)C2)cc1` (centres unmarked) [N-{4-[3-(5-Methyl-furan-2-yl)-piperazine-1-sulfonyl]-phenyl}-acrylamide], the pIC50 was 4.60 to 6.00.

For the molecule `C=CC(=O)Nc1ccc(S(=O)(=O)N2CCN(c3nc4ccccc4o3)CC2)cc1` [N-[4-(4-Benzooxazol-2-yl-piperazine-1-sulfonyl)-phenyl]-acrylamide], the pIC50 is > 7.00 and 6.00 to 7.00.

In the case of `C=CC(=O)Nc1ccc(S(=O)(=O)N2CCN(c3cnccn3)CC2)cc1` [N-[4-(2,3,5,6-Tetrahydro-[1,2′]bipyrazinyl-4-sulfonyl)-phenyl]-acrylamide], the pIC50 was > 7.00 and 6.00 to 7.00.

As to `C=CC(=O)Nc1ccc(S(=O)(=O)N2CCN(C(=O)N3C[C@@H](C)O[C@@H](C)C3)CC2)cc1` [N-{4-[4-(2,6-Dimethyl-morpholine-4-carbonyl)-piperazine-1-sulfonyl]-phenyl}-acrylamide], the pIC50 is 6.00 to 7.00 and > 7.00.

Regarding `C=CC(=O)Nc1ccc(S(=O)(=O)N2CCC(C(=O)N(C)c3ccccc3)CC2)cc1` [1-(4-Acryloylamino-benzenesulfonyl)-piperidine-4-carboxylic acid methyl-phenyl-amide], the pIC50 was > 7.00 and 6.00 to 7.00.

With `C=CC(=O)Nc1ccc(S(=O)(=O)N2CCN(C(=O)C34CC5CC(CC(C5)C3)C4)CC2)c(F)c1` [N-{4-[4-(Adamantane-1-carbonyl)-piperazine-1-sulfonyl]-3-fluoro-phenyl}-acrylamide], the pIC50 is 6.00 to 7.00 and > 7.00.

`C=CC(=O)Nc1ccc(S(=O)(=O)N(C)Cc2csc(N3CCOCC3)n2)cc1` [N-{4-[Methyl-(2-morpholin-4-yl-thiazol-4-ylmethyl)-sulfamoyl]-phenyl}-acrylamide] gave a pIC50 of 4.60 to 6.00.

`C=CC(=O)Nc1cccc(S(=O)(=O)N2CCN(CCCCc3ccccc3)CC2)c1` [N-{3-[4-(4-Phenyl-butyl)-piperazine-1-sulfonyl]-phenyl}-acrylamide] gave a pIC50 of 4.60 to 6.00.

The term pIC50 denotes −log10 of the IC50, conventionally taken in molar units.

(Values after patent US8946197B2, “Transglutaminase TG2 inhibitors, pharmaceutical compositions, and methods of use thereof” (CHDI Foundation, Inc., priority 2009, dated 2015).)
